Laboratory results taken from ChEMBL document CHEMBL1201862, “PubChem BioAssay data set” (2004).
The source made the active and inactive calls.

Columns and labels:
[1] = target: Phosphoethanolamine/phosphocholine phosphatase (Homo sapiens, UniProt Q8TCT1); experiment: SAR assay for compounds that inhibit PHOSPHO1. [Related pubchem assays (depositor defined):AID1545, AID1565, AID1574]
[2] = target: T1, Alkaline phosphatase, tissue-nonspecific isozyme (Homo sapiens, UniProt P05186); experiment: potency against alkaline phosphatase TNAP – biochemical, luminescent, dose response, SAR follow-up (AID 1056)
T1 sequence (P05186 whole entry): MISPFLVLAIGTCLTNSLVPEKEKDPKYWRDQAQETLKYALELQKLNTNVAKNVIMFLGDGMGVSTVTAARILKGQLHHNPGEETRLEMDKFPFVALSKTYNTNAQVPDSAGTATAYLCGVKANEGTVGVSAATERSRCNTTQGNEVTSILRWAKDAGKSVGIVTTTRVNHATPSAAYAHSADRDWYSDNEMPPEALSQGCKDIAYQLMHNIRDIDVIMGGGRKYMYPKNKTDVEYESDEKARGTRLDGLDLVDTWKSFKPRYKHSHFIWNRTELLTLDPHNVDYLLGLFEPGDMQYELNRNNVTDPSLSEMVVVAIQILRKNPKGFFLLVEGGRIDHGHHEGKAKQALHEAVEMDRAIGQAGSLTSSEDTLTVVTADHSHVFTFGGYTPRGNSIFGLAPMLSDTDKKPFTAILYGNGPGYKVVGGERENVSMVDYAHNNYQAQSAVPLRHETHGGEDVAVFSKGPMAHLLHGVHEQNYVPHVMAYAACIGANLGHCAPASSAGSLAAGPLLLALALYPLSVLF

[3] = target: T2, Mannose-6-phosphate isomerase (Homo sapiens, UniProt P34949); experiment: phosphomannose isomerase inhibition – biochemical, fluorescence intensity, confirmation (AID 1535)
T2 sequence (P34949 whole entry): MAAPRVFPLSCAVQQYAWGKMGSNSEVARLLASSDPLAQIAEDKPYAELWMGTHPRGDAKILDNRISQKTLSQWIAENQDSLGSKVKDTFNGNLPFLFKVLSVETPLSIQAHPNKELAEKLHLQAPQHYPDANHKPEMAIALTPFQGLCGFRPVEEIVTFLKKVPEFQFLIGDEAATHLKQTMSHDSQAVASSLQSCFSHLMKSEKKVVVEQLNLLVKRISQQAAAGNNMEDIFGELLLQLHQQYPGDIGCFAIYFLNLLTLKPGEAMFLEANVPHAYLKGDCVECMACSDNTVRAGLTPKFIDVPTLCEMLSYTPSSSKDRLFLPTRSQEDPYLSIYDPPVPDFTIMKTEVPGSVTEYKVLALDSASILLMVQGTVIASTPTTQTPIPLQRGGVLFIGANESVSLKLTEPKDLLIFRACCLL

Phosphomannomutase 2 = Phosphomannomutase 2 (Homo sapiens, UniProt O15305); experiment: Counter screen SAR assay for PMM2 inhibitors via a fluorescence intensity assay. [Related pubchem assays (depositor defined):AID1545, AID1574]
Chain of Phosphomannomutase 2 (O15305 whole entry): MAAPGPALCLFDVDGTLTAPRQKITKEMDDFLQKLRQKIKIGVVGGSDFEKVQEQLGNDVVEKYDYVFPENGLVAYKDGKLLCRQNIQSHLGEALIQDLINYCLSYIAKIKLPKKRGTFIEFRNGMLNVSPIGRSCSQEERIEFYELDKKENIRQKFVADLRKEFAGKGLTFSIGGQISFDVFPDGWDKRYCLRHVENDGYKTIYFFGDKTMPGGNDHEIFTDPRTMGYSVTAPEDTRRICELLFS

HEK293 [4] = experiment: inhibition of NOD1-driven NF-kB reporter – cell-based, luminescence, uHTS, primary screen (AID 1578); assay type: functional; settings: Homo sapiens
HEK293 [5] = experiment: cells; assay type: functional, cell-based; settings: Homo sapiens
HEK293 [6] = experiment: cells; assay type: functional, cell-based; settings: Homo sapiens; remark: listed apart in the source
HEK293 [7] = experiment: NOD2 signaling inhibitors in MDP-stimulated cells, cell-based, uHTS, luminescence (AID 2001); assay type: functional; settings: Homo sapiens
Exodeoxyribonuclease V = Exodeoxyribonuclease V (Escherichia coli (strain K12), UniProt P04993+P07648+P08394); experiment: RecBCD inhibition via phage-restricted bacterial growth – absorbance, V66 E. coli, mutant T4 phage, counter-screen for AddAB inhibitor project, dose response (AID 492957); assay type: functional, cell-based, Escherichia coli str. K-12 substr. MG1655
Chain of Exodeoxyribonuclease V (P04993 whole entry): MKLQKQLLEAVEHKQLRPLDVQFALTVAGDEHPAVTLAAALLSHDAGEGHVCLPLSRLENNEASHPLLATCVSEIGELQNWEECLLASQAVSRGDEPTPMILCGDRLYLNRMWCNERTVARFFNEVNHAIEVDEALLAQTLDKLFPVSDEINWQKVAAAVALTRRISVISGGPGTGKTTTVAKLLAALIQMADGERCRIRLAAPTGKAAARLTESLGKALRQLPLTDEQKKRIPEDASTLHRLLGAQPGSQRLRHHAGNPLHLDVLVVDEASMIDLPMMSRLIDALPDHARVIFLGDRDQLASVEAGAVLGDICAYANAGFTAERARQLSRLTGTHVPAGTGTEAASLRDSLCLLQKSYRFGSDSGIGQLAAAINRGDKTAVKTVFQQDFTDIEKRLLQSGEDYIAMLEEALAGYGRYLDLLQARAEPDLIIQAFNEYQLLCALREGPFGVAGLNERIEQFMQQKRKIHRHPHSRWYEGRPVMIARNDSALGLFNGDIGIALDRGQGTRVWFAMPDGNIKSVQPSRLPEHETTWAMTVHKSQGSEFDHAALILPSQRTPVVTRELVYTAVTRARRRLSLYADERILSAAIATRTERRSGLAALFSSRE
Chain of Exodeoxyribonuclease V (P07648 whole entry): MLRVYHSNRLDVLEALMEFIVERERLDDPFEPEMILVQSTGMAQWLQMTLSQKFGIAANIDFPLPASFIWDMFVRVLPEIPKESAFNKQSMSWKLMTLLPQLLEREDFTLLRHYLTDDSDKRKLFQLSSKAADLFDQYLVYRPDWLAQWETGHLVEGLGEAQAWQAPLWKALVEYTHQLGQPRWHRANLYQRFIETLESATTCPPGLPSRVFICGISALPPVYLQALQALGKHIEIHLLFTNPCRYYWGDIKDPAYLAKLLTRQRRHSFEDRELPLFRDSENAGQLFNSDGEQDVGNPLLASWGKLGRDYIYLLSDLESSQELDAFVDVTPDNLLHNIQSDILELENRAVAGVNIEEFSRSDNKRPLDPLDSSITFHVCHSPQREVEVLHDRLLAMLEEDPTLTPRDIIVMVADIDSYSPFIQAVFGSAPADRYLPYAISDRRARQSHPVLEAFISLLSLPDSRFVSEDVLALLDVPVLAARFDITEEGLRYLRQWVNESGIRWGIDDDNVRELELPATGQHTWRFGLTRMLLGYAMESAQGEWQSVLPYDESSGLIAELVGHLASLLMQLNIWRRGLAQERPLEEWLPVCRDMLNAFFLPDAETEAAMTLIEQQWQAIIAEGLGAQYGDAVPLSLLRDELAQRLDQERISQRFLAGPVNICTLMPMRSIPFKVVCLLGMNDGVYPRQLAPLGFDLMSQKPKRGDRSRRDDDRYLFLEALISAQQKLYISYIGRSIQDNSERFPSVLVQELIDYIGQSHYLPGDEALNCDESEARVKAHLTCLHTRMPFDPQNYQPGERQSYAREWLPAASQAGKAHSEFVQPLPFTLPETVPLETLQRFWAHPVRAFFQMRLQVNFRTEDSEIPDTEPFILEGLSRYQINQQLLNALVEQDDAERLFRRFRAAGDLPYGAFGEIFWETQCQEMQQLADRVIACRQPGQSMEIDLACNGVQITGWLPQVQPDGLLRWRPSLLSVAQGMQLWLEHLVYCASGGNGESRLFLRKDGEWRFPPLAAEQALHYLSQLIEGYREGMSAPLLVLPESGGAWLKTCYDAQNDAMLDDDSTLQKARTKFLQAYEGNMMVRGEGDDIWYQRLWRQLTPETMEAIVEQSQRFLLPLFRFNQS
Chain of Exodeoxyribonuclease V (P08394 whole entry): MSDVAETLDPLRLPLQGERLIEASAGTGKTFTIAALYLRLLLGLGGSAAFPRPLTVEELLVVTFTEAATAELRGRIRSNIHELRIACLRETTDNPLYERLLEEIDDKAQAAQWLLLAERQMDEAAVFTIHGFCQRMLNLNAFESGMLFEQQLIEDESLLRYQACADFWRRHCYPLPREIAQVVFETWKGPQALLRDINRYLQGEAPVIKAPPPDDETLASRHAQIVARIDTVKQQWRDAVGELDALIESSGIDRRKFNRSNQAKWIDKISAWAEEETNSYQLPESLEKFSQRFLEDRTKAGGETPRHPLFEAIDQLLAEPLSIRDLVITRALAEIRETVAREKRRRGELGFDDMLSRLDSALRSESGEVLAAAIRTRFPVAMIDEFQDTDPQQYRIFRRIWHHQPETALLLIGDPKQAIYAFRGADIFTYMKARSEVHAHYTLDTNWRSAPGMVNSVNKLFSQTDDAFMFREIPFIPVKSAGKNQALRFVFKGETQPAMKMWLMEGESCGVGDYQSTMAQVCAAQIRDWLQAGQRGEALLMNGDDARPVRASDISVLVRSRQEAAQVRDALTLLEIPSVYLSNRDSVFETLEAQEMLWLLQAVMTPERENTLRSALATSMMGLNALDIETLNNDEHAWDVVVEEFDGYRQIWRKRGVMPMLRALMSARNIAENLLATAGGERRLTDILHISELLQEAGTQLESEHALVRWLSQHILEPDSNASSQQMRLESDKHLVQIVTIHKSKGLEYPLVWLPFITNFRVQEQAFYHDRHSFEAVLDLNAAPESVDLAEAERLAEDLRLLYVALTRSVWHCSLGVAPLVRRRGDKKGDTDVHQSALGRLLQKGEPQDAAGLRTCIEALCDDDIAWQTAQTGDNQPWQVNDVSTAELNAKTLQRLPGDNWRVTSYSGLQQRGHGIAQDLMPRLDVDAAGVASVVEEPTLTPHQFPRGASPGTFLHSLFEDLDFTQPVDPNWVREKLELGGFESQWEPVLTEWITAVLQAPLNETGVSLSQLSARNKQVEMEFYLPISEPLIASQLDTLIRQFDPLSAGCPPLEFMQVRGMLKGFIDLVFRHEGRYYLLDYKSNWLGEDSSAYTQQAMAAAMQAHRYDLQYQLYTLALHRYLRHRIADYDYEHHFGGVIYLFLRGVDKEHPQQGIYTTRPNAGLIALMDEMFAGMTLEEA

[8] = Counterscreen for AddAB inhibitors: absorbance-based bacterial cell-based high throughput dose response assay for inhibitors of bacterial viability. [Related pubchem assays (depositor defined):AID435030, AID449728, AID449731, AID488942, AID488955, AID488956]; assay type: functional

Chain of Phosphoethanolamine/phosphocholine phosphatase (Q8TCT1 whole entry): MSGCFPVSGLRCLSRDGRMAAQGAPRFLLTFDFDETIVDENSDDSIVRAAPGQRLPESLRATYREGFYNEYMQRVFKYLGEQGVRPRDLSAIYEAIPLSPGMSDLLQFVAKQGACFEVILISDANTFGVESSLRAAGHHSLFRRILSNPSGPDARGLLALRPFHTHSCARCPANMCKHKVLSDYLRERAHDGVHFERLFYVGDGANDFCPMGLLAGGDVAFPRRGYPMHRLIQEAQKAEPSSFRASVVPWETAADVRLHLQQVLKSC

## CCN(CC)S(=O)(=O)c1cccc(-n2sc3ccccc3c2=O)c1
[1]
  IC50: 0.555 µM (active)
[2]
  IC50: > 100 µM (inactive)
[3]
  IC50: 61.9 µM (active)
Phosphomannomutase 2
  IC50: > 100 µM (inactive)

## CCCCCOc1ccc(/C=C/c2c([N+](=O)[O-])c(=O)n(C)c(=O)n2C)cc1
HEK293 [4]
  EC50: > 20 µM (inactive)
HEK293 [5]
  IC50: > 20 µM (inactive)
HEK293 [6]
  IC50: > 20 µM (inactive)
HEK293 [7]
  IC50: 8.94 µM (active)

## CC(=O)N(/N=C/c1ccc([N+](=O)[O-])o1)c1nc2ccccc2c(=O)n1-c1ccccc1
Exodeoxyribonuclease V
  IC50: > 119 µM (inactive)
[8]
  IC50: 45.9 µM (inactive)
